According to the NIST ThermoML archive (doi:10.1016/j.fluid.2013.01.027):
± gives the expanded uncertainty stated by the source.

Settings: 298.15 K; 101.33 kPa; Liquid; Vibrating tube method

| SMILES | mass density [kg/m3] |
| --- | --- |
| CCCC[N+]1(C)CCCC1.FC(F)(F)C(F)(F)[P-](F)(F)(F)(C(F)(F)C(F)(F)F)C(F)(F)C(F)(F)F | 1582.63 ± 0.76 |
| c1ccccc1 [benzene] | 873.53 ± 0.14 |
| CCCCO [butan-1-ol] | 805.78 ± 0.15 |
| CCCCCCCCCCO [decan-1-ol] | 826.38 ± 0.14 |
| CCCCCCCCCCCCO [dodecan-1-ol] | 823.35 ± 0.24 |
| CCc1ccccc1 [ethylbenzene] | 862.97 ± 0.16 |
| CCCCCCO [hexan-1-ol] | 814.94 ± 0.15 |
| CCCCCCCCO [octan-1-ol] | 823.27 ± 0.14 |
| CCCc1ccccc1 [propylbenzene] | 858.62 ± 0.24 |
| c1ccsc1 [thiophene] | 1058.48 ± 0.28 |
| Cc1ccccc1 [toluene] | 863.67 ± 0.14 |
